The text below walks through data of patent publication USRE50301E1, “Depot systems comprising glatiramer or pharmacologically acceptable salt thereof” (MAPI PHARMA LTD., priority 2010, dated 2025).

The subject of this assay is MOG-induced chronic EAE in C57BL/6 mice. It counts as in vivo.

Excerpt: The effect of the two formulations on MOG (myelin-oligodendrocyte-glycoprotein)-induced chronic EAE in C57BL/6 mice was examined according to the procedure described below.
Forty (40) female C57BL/6 mice had been randomly grouped into three (3) groups by body weight in this study; each group consisted of ten (10) mice. […] EAE had been induced by injection of emulsion of MOG subcutaneously on the shaved back of the mouse at three sites, followed by an intraperitoneal injection of Bordetella pertussis toxin in PBS on Day 0 and 48 hours post MOG immunization. EAE had been assessed by clinical scoring of the mice once daily from Day 0 to Day 14 post immunization. […] On Day 14, mice had been terminated.
After anesthetization by isoflurane (2-3%, inhalation), EAE had been induced by injecting 100 μL emulsion subcutaneously into the shaved backs of the mice. Bordetella pertussis toxin (200 ng in 200 μL of PBS) had been administered i.p. on the day of immunization (Day 0) and 48 hours thereafter. […]
Body weight of all mice had been recorded daily starting from Day 0 to Day 14. EAE development had been assessed by clinically scoring of the mice once daily from Day 0 to Day 14 post immunization according to a scale of 0-5 (0=normal mouse; 1=limp tail or hind limb weakness; 2=limp tail and hind limb weakness; 3=partial hind limb paralysis; 4=complete hind limb paralysis; and 5=moribund state). […]

Turning to “L-glutamic acid polymer with L-alanine, L-lysine and L-tyrosine, acetate (salt) [GA]”, the Maximum score (clinical score scale 0-5, days 0-14, 5 mg GA/mice/day i.m. on day 0 and day 1) is 0.5 ± 0.31. Under “days 0-14, 5 mg GA/mice/day i.m. on day 0 and day 1”, this substance displayed a Disease duration of 0.5 ± 0.31.
